Data reported in the kinase profiling compilation of Christmann-Franck et al. (2016).

How the values were obtained:
Experiment in all cases: KINOMEscan competition binding
Settings in all cases: compound 10.0 µM
[1] = system: ABL1 (human), P00519 [Y253F]
ACVR1B (human) = ACVR1B (human) (UniProt P36896)
CDK5 (human) = CDK5 (human) (UniProt Q00535)
CDKL2 (human) = CDKL2 (human) (UniProt Q92772)
CHEK2 (human) = CHEK2 (human) (UniProt O96017)
CLK3 (human) = CLK3 (human) (UniProt P49761)
DAPK1 (human) = DAPK1 (human) (UniProt P53355)
DDR1 (human) = DDR1 (human) (UniProt Q08345)
EGFR (human) = EGFR (human) (UniProt P00533)
EPHA5 (human) = EPHA5 (human) (UniProt P54756)
EPHA7 (human) = EPHA7 (human) (UniProt Q15375)
FGFR2 (human) = FGFR2 (human) (UniProt P21802)
[2] = system: FLT3 (human), P36888 [D835H]
FLT4 (human) = FLT4 (human) (UniProt P35916)
GAK (human) = GAK (human) (UniProt O14976)
IRAK3 (human) = IRAK3 (human) (UniProt Q9Y616)
[3] = target: JAK3 JH1 catalytic (human) (UniProt P52333)
[4] = system: KIT (human), P10721 [V559D/T670I]
LIMK1 (human) = LIMK1 (human) (UniProt P53667)
LTK (human) = LTK (human) (UniProt P29376)
MAP3K10 (human) = MAP3K10 (human) (UniProt Q02779)
MAP3K3 (human) = MAP3K3 (human) (UniProt Q99759)
MAP3K3 (human), sequence (Q99759 whole entry, looked up): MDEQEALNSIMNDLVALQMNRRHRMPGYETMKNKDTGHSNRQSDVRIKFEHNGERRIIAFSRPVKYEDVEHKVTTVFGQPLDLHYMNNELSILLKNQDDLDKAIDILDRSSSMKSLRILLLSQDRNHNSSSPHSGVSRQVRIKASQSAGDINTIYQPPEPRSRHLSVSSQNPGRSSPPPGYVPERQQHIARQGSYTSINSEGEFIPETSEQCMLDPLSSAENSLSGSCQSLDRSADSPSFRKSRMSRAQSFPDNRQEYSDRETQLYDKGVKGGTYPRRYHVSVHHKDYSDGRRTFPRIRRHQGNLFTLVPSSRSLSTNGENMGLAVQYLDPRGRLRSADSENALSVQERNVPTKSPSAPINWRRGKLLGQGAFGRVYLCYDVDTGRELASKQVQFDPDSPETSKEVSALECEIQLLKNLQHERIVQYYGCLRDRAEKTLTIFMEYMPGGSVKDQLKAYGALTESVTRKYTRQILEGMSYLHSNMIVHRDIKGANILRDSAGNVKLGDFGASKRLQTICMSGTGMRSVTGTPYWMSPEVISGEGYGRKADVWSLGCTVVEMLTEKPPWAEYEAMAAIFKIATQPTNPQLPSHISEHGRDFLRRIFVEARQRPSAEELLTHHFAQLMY

MAP3K9 (human) = MAP3K9 (human) (UniProt P80192)
MAP3K9 (human), sequence (P80192 whole entry, looked up): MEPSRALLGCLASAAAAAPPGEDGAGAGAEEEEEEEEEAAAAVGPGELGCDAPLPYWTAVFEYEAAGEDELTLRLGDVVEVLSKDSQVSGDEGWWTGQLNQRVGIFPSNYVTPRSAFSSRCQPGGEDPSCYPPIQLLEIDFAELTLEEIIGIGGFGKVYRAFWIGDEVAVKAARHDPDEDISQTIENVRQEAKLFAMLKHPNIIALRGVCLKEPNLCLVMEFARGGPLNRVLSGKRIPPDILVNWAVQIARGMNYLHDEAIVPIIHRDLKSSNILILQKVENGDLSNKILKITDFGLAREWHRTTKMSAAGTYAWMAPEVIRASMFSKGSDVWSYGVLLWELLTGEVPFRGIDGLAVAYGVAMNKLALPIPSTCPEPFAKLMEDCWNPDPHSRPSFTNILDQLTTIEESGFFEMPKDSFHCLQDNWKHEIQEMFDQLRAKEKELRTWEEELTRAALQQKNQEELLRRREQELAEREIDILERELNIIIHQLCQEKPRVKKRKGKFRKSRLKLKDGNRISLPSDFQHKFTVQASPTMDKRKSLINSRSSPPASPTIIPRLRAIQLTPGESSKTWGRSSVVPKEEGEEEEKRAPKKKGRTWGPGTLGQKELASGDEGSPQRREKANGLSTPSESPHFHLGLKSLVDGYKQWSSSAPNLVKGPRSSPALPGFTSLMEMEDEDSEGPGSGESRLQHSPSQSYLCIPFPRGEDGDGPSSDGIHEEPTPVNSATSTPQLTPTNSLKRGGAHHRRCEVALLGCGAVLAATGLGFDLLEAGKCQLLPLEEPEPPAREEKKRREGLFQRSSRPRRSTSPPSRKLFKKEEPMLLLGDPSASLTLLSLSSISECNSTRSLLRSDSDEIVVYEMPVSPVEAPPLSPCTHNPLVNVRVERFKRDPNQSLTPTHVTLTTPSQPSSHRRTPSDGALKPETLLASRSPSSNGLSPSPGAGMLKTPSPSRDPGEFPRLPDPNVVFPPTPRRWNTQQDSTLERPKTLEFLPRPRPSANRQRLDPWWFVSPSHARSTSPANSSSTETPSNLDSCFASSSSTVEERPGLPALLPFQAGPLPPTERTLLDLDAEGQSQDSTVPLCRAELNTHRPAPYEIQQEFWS

MAP4K1 (human) = MAP4K1 (human) (UniProt Q92918)
MAPK14 (human) = MAPK14 (human) (UniProt Q16539)
MAPK14 (human), sequence (Q16539 whole entry, looked up): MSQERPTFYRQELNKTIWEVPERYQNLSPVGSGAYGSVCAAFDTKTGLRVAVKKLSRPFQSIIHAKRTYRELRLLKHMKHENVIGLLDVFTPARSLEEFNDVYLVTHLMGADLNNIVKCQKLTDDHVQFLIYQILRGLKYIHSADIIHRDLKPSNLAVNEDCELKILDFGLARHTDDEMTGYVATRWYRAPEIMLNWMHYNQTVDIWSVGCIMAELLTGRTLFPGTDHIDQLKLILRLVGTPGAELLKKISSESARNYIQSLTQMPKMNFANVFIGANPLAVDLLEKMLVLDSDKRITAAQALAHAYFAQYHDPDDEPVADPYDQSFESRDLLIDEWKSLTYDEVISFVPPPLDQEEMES

MAPK4 (human) = MAPK4 (human) (UniProt P31152)
MAPK9 (human) = MAPK9 (human) (UniProt P45984)
MINK1 (human) = MINK1 (human) (UniProt Q8N4C8)
MKNK2 (human) = MKNK2 (human) (UniProt Q9HBH9)
MYLK (human) = MYLK (human) (UniProt Q15746)
NUAK1 (human) = NUAK1 (human) (UniProt O60285)
NUAK1 (human), sequence (O60285 whole entry, looked up): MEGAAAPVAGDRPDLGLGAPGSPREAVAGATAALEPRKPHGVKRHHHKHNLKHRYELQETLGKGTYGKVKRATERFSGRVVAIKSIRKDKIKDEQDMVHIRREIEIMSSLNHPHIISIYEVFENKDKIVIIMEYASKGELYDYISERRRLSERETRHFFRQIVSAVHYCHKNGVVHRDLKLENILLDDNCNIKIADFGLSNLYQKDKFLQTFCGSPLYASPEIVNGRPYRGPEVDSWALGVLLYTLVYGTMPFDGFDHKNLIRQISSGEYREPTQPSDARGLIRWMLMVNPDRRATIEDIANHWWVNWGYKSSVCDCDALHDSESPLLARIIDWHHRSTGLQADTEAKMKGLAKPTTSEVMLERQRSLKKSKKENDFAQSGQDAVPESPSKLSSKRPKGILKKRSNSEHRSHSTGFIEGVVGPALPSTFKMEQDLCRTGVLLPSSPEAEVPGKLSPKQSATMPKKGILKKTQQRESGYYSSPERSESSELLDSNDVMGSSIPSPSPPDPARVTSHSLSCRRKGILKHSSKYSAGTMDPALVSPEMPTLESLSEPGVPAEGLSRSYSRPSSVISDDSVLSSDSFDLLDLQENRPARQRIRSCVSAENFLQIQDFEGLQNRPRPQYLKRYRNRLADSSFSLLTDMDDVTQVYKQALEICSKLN

PIK3CG (human) = PIK3CG (human) (UniProt P48736)
PIK3CG (human), sequence (P48736 whole entry, looked up): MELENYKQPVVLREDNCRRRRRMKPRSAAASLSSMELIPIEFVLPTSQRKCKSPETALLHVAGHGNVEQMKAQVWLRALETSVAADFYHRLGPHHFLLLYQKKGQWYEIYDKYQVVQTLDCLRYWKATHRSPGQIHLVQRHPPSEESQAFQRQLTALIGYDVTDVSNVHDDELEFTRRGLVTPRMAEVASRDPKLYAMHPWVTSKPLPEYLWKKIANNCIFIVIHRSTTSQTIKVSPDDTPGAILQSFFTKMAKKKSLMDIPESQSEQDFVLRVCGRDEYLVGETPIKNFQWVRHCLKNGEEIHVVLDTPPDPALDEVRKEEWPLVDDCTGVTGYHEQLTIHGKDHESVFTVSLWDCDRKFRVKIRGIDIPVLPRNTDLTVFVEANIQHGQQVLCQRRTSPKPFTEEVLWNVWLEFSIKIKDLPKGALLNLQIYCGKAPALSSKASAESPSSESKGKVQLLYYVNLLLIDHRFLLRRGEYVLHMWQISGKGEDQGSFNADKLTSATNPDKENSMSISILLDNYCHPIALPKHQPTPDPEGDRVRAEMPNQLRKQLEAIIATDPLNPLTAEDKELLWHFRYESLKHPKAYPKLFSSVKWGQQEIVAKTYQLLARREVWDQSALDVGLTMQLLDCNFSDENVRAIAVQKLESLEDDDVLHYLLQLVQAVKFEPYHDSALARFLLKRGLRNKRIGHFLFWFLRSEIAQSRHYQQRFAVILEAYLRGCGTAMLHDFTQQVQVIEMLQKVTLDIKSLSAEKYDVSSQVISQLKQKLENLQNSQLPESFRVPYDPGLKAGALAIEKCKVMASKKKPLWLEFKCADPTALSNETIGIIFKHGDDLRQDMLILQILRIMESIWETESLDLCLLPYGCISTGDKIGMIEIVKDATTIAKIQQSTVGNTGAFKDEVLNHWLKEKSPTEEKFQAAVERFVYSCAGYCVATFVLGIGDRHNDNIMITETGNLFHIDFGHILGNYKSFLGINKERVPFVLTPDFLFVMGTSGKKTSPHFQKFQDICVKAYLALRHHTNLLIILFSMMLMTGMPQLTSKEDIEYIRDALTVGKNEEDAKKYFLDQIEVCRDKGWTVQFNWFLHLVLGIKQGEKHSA

PLK4 (human) = PLK4 (human) (UniProt O00444)
PRKCH (human) = PRKCH (human) (UniProt P24723)
PRKCQ (human) = PRKCQ (human) (UniProt Q04759)
RPS6KA3 KD1 (human) = RPS6KA3 KD1 (human) (UniProt P51812)
STK16 (human) = STK16 (human) (UniProt O75716)
STK17A (human) = STK17A (human) (UniProt Q9UEE5)
STK25 (human) = STK25 (human) (UniProt O00506)
TAOK1 (human) = TAOK1 (human) (UniProt Q7L7X3)
TGFBR1 (human) = TGFBR1 (human) (UniProt P36897)
ULK3 (human) = ULK3 (human) (UniProt Q6PHR2)

ACVR1B (human), sequence (P36896 whole entry, looked up): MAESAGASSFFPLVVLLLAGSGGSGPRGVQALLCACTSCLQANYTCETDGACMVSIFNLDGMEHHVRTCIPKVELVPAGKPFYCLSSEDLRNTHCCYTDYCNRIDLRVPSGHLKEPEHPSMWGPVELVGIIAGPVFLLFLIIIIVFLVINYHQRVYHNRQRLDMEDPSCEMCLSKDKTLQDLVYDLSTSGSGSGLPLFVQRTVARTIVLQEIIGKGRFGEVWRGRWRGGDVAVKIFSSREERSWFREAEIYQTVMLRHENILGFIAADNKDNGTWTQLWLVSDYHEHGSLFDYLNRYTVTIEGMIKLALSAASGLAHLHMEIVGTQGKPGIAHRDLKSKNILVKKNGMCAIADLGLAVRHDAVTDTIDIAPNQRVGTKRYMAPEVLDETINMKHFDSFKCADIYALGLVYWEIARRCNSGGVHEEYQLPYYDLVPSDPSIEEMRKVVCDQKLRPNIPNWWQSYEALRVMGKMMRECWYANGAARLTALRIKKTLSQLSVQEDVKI
CDKL2 (human), sequence (Q92772 whole entry, looked up): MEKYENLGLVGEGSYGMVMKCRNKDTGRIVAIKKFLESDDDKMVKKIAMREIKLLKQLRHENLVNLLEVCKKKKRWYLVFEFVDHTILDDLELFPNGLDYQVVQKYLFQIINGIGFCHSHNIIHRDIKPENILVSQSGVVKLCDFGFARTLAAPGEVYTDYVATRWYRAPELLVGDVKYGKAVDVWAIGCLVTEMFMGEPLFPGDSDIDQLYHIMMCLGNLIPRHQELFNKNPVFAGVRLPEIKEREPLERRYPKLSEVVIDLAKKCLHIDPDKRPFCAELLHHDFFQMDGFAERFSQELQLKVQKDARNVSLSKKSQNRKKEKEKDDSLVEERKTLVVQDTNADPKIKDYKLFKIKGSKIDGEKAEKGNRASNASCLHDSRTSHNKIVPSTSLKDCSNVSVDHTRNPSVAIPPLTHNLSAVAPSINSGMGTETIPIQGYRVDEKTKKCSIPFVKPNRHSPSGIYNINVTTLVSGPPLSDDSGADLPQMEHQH

CCOc1cc(N2CCC(N3CCCCC3)CC2)ccc1Nc1nc(Nc2ccccc2S(=O)(=O)C(C)C)c2cn[nH]c2n1
kinase still bound, per cent of control [1]: 61% | kinase still bound, per cent of control (ACVR1B (human)): 100% | kinase still bound, per cent of control (CDK5 (human)): 96% | kinase still bound, per cent of control (CDKL2 (human)): 91% | kinase still bound, per cent of control (CHEK2 (human)): 23% | kinase still bound, per cent of control (CLK3 (human)): 50% | kinase still bound, per cent of control (DAPK1 (human)): 60% | kinase still bound, per cent of control (DDR1 (human)): 100% | kinase still bound, per cent of control (EGFR (human)): 4.1% | kinase still bound, per cent of control (EPHA5 (human)): 100% | kinase still bound, per cent of control (EPHA7 (human)): 100% | kinase still bound, per cent of control (FGFR2 (human)): 100% | kinase still bound, per cent of control [2]: 74% | kinase still bound, per cent of control (FLT4 (human)): 100% | kinase still bound, per cent of control (GAK (human)): 6% | kinase still bound, per cent of control (IRAK3 (human)): 100% | kinase still bound, per cent of control [3]: 84% | kinase still bound, per cent of control [4]: 100% | kinase still bound, per cent of control (LIMK1 (human)): 100% | kinase still bound, per cent of control (LTK (human)): 1.7% | kinase still bound, per cent of control (MAP3K10 (human)): 100% | kinase still bound, per cent of control (MAP3K3 (human)): 69% | kinase still bound, per cent of control (MAP3K9 (human)): 94% | kinase still bound, per cent of control (MAP4K1 (human)): 54% | kinase still bound, per cent of control (MAPK14 (human)): 98% | kinase still bound, per cent of control (MAPK4 (human)): 100% | kinase still bound, per cent of control (MAPK9 (human)): 22% | kinase still bound, per cent of control (MINK1 (human)): 71% | kinase still bound, per cent of control (MKNK2 (human)): 100% | kinase still bound, per cent of control (MYLK (human)): 0.9% | kinase still bound, per cent of control (NUAK1 (human)): 100% | kinase still bound, per cent of control (PIK3CG (human)): 100% | kinase still bound, per cent of control (PLK4 (human)): 74% | kinase still bound, per cent of control (PRKCH (human)): 100% | kinase still bound, per cent of control (PRKCQ (human)): 100% | kinase still bound, per cent of control (RPS6KA3 KD1 (human)): 2% | kinase still bound, per cent of control (STK16 (human)): 76% | kinase still bound, per cent of control (STK17A (human)): 100% | kinase still bound, per cent of control (STK25 (human)): 95% | kinase still bound, per cent of control (TAOK1 (human)): 33% | kinase still bound, per cent of control (TGFBR1 (human)): 95% | kinase still bound, per cent of control (ULK3 (human)): 100%
